The test concerns the target Fibroblast growth factor receptor 3 (Homo sapiens, UniProt P22607). The test is described as follows: Inhibition of N-terminal GST-fused human FGFR3 cytoplasmic domain (436 to 806(end) amino acids) using CSKtide substrate incubated for 90 mins.

pIC50: −log10 of the molar value.

Chain of Fibroblast growth factor receptor 3 (P22607 whole entry, the tested form may be a part): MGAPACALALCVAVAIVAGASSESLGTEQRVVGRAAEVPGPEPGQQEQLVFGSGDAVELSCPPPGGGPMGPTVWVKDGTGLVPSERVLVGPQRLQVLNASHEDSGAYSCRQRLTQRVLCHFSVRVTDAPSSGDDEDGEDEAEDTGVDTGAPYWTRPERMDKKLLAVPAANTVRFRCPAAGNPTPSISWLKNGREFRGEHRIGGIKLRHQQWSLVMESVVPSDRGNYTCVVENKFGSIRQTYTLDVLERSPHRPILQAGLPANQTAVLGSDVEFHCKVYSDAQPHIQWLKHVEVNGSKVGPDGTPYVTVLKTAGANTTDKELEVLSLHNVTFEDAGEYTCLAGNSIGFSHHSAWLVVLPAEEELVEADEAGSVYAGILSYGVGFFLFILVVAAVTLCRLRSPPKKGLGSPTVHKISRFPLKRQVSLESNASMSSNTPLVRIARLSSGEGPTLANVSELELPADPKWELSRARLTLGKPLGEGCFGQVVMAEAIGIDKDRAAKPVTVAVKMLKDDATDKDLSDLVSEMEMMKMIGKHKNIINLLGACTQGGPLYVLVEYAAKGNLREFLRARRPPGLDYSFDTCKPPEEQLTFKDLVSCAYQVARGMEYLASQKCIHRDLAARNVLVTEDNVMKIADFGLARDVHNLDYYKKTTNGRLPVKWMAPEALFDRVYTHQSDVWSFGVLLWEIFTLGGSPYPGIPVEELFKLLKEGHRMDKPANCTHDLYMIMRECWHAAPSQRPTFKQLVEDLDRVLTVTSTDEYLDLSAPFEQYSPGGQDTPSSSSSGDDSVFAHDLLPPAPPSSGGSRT

Broadly, the pIC50 is −log10 of the IC50, conventionally taken in molar units. A higher pIC50 goes with a small IC50. Compound `C=CC(=O)Nc1cccc(C)c1Nc1ncc2cc(-c3c(Cl)c(OC)cc(OC)c3Cl)ccc2n1` gave a pIC50 of 6.82.

The values above are taken from ChEMBL document CHEMBL4400505, “Fibroblast Growth Factor Receptor 4 (FGFR4) Selective Inhibitors as Hepatocellular Carcinoma Therapy: Advances and Prospects” (J Med Chem, 2019).
